Measurements: patent US5985900A, “Metalloproteinase inhibitors, pharmaceutical compositions containing them and their pharmaceutical uses” (Agouron Pharmaceuticals, Inc., priority 1998, dated 1999)

Legend:
Format in all cases: biochemical
human stromelysin (Sln) = human stromelysin (Sln) (Homo sapiens, UniProt P08254); assay: In vitro MMP inhibition assay (hydrolysis of fluorogenic MCA peptide substrate), stromelysin; details: Table 1; Ki,app; MCA peptide substrate 10 μM, 37° C., pH 7.5, 2% DMSO; read-out: Sin Ki
Procedure: The catalytic domain of human stromelysin (Sln) was obtained by expression and purification of a C-terminally truncated prostromelysin-1 from E. coli host BL21 (see Marcy et al. Biochem., 1991, 30, 6476). The subsequent activation of the mature form (Sln) was completed with 2 mM APMA for 1 hour at 37° C., followed by separation using a sizing column.
(§1) Assays were performed in assay buffer (50 mM Tricine pH 7.5, 200 mM sodium chloride, 10 mM calcium chloride, 0.5 mM zinc acetate containing 2% dimethyl sulfoxide (DMSO)) once the substrate and inhibitor were diluted into it. Stock solutions of inhibitors were prepared in 100% DMSO. Stock solutions of the substrate were prepared in 100% DMSO at a concentration of 6 mM.
(§2) The assay method was based on the hydrolysis of MCA-Pro-Leu-Gly-Leu-DPA-Ala-Arg-NH2 (American Peptide Co.) at 37° C. (see Knight, C. G. et al., FEBS, 1992, 296, 263-266). The fluorescence changes were monitored with a Perkin-Elmer LS-50B fluorimeter using an excitation wavelength of 328 nm and an emission wavelength of 393 nm. The substrate concentration used in the assays was 10 μM. The inhibitor was diluted into the assays from a solution in 100% DMSO, and controls substituted an equal volume of DMSO so that the final DMSO concentration from inhibitor and substrate dilution in all assays was 2%. […] Proper determination of steady-state rates of substrate cleavage required assay lengths of 60 minutes to allow for complete equilibration of the enzyme-inhibitor complex.
(§3) The Km for the MCA peptide substrate with the matrix metalloproteinases is quite high and exceeds its solubility under assay conditions. Consequently, the apparent Ki (Ki,app) was determined to describe the strength of inhibition. However, in this case, Ki,app would be essentially equal to Ki since [S]<<Km. For the determination of Ki,app, the concentration of the inhibitor was varied at a constant and low concentration of substrate and the steady-state rates of fluorescence change determined. In most cases absorptive quench due to the presence of ligand was not observed. For slow-binding inhibitors, onset of inhibition curves were collected for at least 45 minutes so that equilibrium was established. Steady-state rates of fluorescence change were obtained by fitting a curve to an equation for a single exponential decay containing a linear phase. The fitted value of the linear phase was taken as the steady-state rate. The steady-state rates were fitted to the Michaelis equation describing competitive inhibition by non-linear methods. Data resulting from tight-binding inhibition was analyzed, and Ki,app determined by fitting the data to the tight-binding equation of Morrison (Biochem. Biophys. Acta, vol. 185, pp. 269-286 (1969)) by non-linear methods.
(§4) All Ki values are in nM units.

[1] = target: human progelatinase A (GelA) (Homo sapiens, UniProt P08253); assay: In vitro MMP inhibition assay (hydrolysis of fluorogenic MCA peptide substrate), gelatinase A; details: Table 1; Ki,app; MCA peptide substrate 10 μM, 37° C., pH 7.5, 2% DMSO; read-out: Gel A
Procedure: The catalytic and fibronectin-like portion of human progelatinase A (GelA) was expressed as a fusion protein with ubiquitin in E. Coli. Assays were carried out on autocatalytically activated material.
as §1, §2, §3, §4

[2] = target: T1, human collagenase-3 (Coll3) (Homo sapiens, UniProt P45452); assay: In vitro MMP inhibition assay (hydrolysis of fluorogenic MCA peptide substrate), collagenase-3; details: Table 1; Ki,app; MCA peptide substrate 10 μM, 37° C., pH 7.5, 2% DMSO
T1 construct: catalytic domain liberated with APMA
Procedure: The propeptide and catalytic domain of human collagenase-3 (Coll3) was expressed in E. coli as an N-terminal fusion protein with ubiquitin. After purification of the fusion from inclusion bodies, the catalytic domain was liberated by treatment with 2 mM APMA at room temperature overnight. Final purification was completed using copper chelate chromatography.
as §1, §2, §3, §4

[3] = target: T2, human collagenase-1 (HFC) (Homo sapiens, UniProt P03956); assay: In vitro MMP inhibition assay (hydrolysis of fluorogenic MCA peptide substrate), fibroblast collagenase-1; details: Table 1; Ki,app; MCA peptide substrate 10 μM, 37° C., pH 7.5, 2% DMSO
T2 sequence (P03956 100-269 limits assumed): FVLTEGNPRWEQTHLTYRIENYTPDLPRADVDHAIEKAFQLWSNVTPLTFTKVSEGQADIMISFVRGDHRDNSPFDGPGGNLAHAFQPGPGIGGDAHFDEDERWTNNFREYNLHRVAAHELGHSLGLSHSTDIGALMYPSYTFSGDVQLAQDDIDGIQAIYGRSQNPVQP
Procedure: The catalytic domain of human collagenase-1 was expressed as a fusion protein with ubiquitin in E. coli (see Gehring, E. R., J Biol. Chem., 1995, 270, 22507). After purification of the fusion protein, the fibroblast collagenase-1 catalytic domain (HFC) was released either by treatment with purified, active stromelysin-1 (1:50 wlw ratio), which generated nearly 100% N-terminal Phe1, or by autoprocessing the concentrated collagenase-1 fusion and then incubating at 37° C. for 1 hour. Final purification was completed using zinc chelate chromatography.
as §1, §2, §3, §4

Human matrilysin (Matr) = target: T3, Human matrilysin (Matr) (Homo sapiens, UniProt P09237); assay: In vitro MMP inhibition assay (hydrolysis of fluorogenic MCA peptide substrate), matrilysin; details: Table 1; Ki,app; MCA peptide substrate 10 μM, 37° C., pH 7.5, 2% DMSO; read-out: Matri Ki
T3 construct: catalytic domain liberated with APMA
T3 sequence (P09237 95-267): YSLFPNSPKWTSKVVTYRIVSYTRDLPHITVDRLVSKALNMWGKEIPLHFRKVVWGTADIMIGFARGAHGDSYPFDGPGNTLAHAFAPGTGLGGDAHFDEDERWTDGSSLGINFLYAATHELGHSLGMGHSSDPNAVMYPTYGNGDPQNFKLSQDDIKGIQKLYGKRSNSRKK
Procedure: Human matrilysin (Matr) was expressed in E. coli as a fusion protein with ubiquitin. After purification of the matrilysin/ubiquitin fusion from inclusion bodies, the catalytic domain was liberated by treatment with 2 mM APMA at 37° C. for 2 hours. Final purification was complete using copper chelate chromatography.
as §1, §2, §3, §4

Sequence of human stromelysin (Sln) (P08254 100-272 limits assumed): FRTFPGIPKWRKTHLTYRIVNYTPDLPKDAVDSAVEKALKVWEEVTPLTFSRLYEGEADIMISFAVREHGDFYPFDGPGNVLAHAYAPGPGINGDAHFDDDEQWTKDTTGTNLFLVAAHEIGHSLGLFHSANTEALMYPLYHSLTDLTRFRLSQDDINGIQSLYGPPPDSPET
Sequence of human progelatinase A (GelA) (P08253 110-446 limits assumed): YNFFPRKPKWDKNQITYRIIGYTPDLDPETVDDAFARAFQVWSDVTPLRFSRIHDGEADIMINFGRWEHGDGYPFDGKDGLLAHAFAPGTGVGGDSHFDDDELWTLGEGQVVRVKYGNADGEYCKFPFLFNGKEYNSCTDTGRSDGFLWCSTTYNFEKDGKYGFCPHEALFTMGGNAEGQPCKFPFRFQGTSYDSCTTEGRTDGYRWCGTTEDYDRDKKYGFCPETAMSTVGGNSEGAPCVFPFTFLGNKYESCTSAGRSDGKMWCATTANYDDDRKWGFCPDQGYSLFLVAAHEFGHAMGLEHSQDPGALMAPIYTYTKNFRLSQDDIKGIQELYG

| SMILES | Ki (human stromelysin (Sln)) [nM] | Ki [1] [nM] | Ki [2] [nM] | Ki [3] [nM] | Ki (Human matrilysin (Matr)) [nM] |
| --- | --- | --- | --- | --- | --- |
| CC(C)([C@@H](NS(=O)(=O)c1ccc(Oc2ccc(Br)cc2)cc1)C(=O)NO)[S+]([O-])Cc1ccccn1 (mixture of isomers) [Example 11, 2(S), S(R/S)--N-hydroxy-3-methyl-3-(pyrid-2-yl) methylsulfinyl-2-[(4-(4-bromophenoxy)benzenesulfonyl)amino]butanamide] | 1 | 0.049 | 0.028 | 24 | – |
| CC(C)(SCc1ccccn1)[C@@H](NS(=O)(=O)c1ccc(Oc2ccc(Br)cc2)cc1)C(=O)O [Example 3d, N-[4-(4-Bromophenoxy)benzenesulfonyl]--S--[(pyrid-2-yl)methyl]-D-penicillamine] | 1500 | 7 | 178 | 34000 | 75000 |
| CC(C)(SCc1ccccc1)[C@@H](NS(=O)(=O)c1ccc(Oc2ccccc2)cc1)C(=O)NO [Example 9i, 2(S)--N-hydroxy-3-methyl-3-benzylsulfanyl-2-[(4-phenoxybenzenesulfonyl)amino]butanamide] | 1.4 | 0.038 | 0.16 | 33 | 26 |
| CC(C)(SCC(=O)O)[C@@H](NS(=O)(=O)c1ccc(Oc2ccc(F)cc2)cc1)C(=O)NO [Example 12, 2(S)--N-hydroxy-3-methyl-3-(carboxymethyl)sulfanyl-2-[(4-(4-fluorophenoxy)benzenesulfonyl)amino]butanamide] | 5.7 | 0.53 | 0.27 | – | – |
| CC(C)(SCc1nccn1Cc1ccccc1)[C@@H](NS(=O)(=O)c1ccc(Oc2ccc(F)cc2)cc1)C(=O)O [Example 3a, S--[(1-Benzyl-1H-imidazol-2-yl)methyl]--N--[4-(4-fluorophenoxy)benzenesulfonyl]-D-penicillamine] | 1300 | 11 | 200 | – | – |
| CC(C)(SCc1ccccn1)[C@@H](NS(=O)(=O)c1ccc(Oc2ccc(C#N)cc2)cc1)C(=O)O [Example 3h, N-[4-(4-Cyanophenoxy)benzenesulfonyl]--S--[(pyrid-2-yl)methyl]-D-penicillamine] | 8200 | 73 | 258 | – | – |
| CC(C)(SCc1ccccn1)[C@@H](NS(=O)(=O)c1ccc(Oc2ccc(F)cc2)cc1)C(=O)NO [Example 9h, 2(S)--N-hydroxy-3-methyl-3-(pyrid-2-yl)methylsulfanyl-2-[(4-(4-fluorophenoxy)benzenesulfonyl)amino]butanamide] | 0.84 | 0.031 | 0.057 | 17 | – |
| CC(C)(SCc1ccccn1)[C@@H](NS(=O)(=O)c1ccc(Oc2ccc(-c3ccoc3)cc2)cc1)C(=O)O [Example 4e, N-[4-(4-(Furan-3-yl)phenoxy)benzenesulfonyl]--S--[(pyrid-2-yl)methyl]-D-penicillamine] | 680 | 7.1 | 153 | – | – |
| CC(C)(SCc1ccccc1)[C@@H](NS(=O)(=O)c1ccc(Oc2ccncc2)cc1)C(=O)O [Example 4a, S-Benzyl--N--[4-(pyrid-4-yl)oxybenzenesulfonyl]-D-penicillamine] | 7700 | 193 | 360 | – | – |
| CSC(C)(C)[C@@H](NS(=O)(=O)c1ccc(Oc2ccccc2)cc1)C(=O)O [Example 6a, S-Methyl--N--[4-(phenoxy)benzenesulfonyl]-D-penicillamine] | 4850 | 351 | 661 | – | – |
| CC(C)(C)[C@@H](NS(=O)(=O)c1ccc(Oc2ccc(Cl)cc2)cc1)C(=O)O [Example 3p, N-[4-(4-Chlorophenoxy)benzenesulfonyl]-D-tert-leucine] | 9500 | 62 | 203 | – | – |
| CSC(C)(C)[C@@H](NS(=O)(=O)c1ccc(Oc2ccccc2)cc1)C(=O)NO [Example 9a, 2(S)--N--Hydroxy-3-methyl-3-methylsulfanyl-2-[(4-phenoxybenzenesulfonyl)amino]butanamide] | 2.2 | 0.069 | 0.067 | – | – |
| CC(C)(SCc1ccccc1)[C@@H](NS(=O)(=O)c1ccc(Oc2ccccc2)cc1)C(=O)O [Example 3m, S-Benzyl--N--[4-phenoxybenzenesulfonyl]-D-penicillamine] | 1000 | 46 | 907 | – | – |
| Cc1cc(CSC(C)(C)[C@@H](NS(=O)(=O)c2ccc(Oc3ccc(F)cc3)cc2)C(=O)O)no1 [Example 3l, N-[4-(4-Fluorophenoxy)benzenesulfonyl]--S--[(5-methylisoxazol-3-yl)methyl]-D-penicillamine] | 5100 | 35.3 | 248 | – | – |
| CC(C)(SCc1ccccn1)[C@@H](NS(=O)(=O)c1ccc(Oc2ccc(Br)cc2)cc1)C(=O)NO [Example 9e, 2(S)--N-hydroxy-3-methyl-3-(pyrid-2-yl)methylsulfanyl-2-[(4-(4-bromophenoxy)benzenesulfonyl)amino]butanamide] | 0.26 | – | – | 4.1 | 7.9 |
| CC(C)(C)[C@@H](NS(=O)(=O)c1ccc(Oc2ccc(F)cc2)cc1)C(=O)O [Example 3q, N-[4-(4-Fluorophenoxy)benzenesulfonyl]-D-tert-leucine] | 14000 | 150 | 1180 | – | – |
| CC(C)(C)OC(=O)CSC(C)(C)[C@@H](NS(=O)(=O)c1ccc(Oc2ccc(F)cc2)cc1)C(=O)NO [Example 9j, 2(S)--N-hydroxy-3-methyl-3-(t-butoxycarbonyl)methylsulfanyl-2-[(4-(4-fluorophenoxy)benzenesulfonyl)amino]butanamide] | 1.6 | 0.048 | 0.091 | 33 | – |
| CC(C)(C)[C@@H](NS(=O)(=O)c1ccc(Oc2ccccn2)cc1)C(=O)O [Example 4d] | 274000 | 11000 | 27000 | – | – |
| Cc1ccc(Oc2ccc(S(=O)(=O)N[C@@H](C(=O)O)C(C)(C)SCc3ccccn3)cc2)cc1 [Example 3g, N-[4-(4-Methylphenoxy)benzenesulfonyl]--S--[(pyrid-2-yl)methyl]-D-penicillamine] | 1310 | 10 | 117 | – | – |
| CC(C)(SCC(=O)O)[C@@H](NS(=O)(=O)c1ccc(Oc2ccc(F)cc2)cc1)C(=O)O [Example 5, S-Carboxymethyl--N--[4-(4-fluorophenoxy)benzenesulfonyl]-D-penicillamine] | 27300 | 1550 | 1620 | – | – |
